Source: patent US10836792B2, “Retro-inverso peptide inhibitors of cell migration, extracellular matrix and endothelial invasion by tumor cells” (ISTITUTO NAZIONALE TUMORI IRCCS “FONDAZIONE G. PASCALE”, priority 2016, dated 2020)
Non-standard residues stand in square brackets, D forms with d. Residues, ends and D or L forms follow the SMILES beside them. Aib = CC(C)(N)C(=O)O

Assays:
melanoma A375 = assay: Matrigel invasion (xCELLigence RTCA), A375; type: cell-based, human; conditions: 10 nM, 20 hrs
Description: (§1) FIG. 8 At the concentration of 10 nM the retro-inverso peptide RI-3 prevents matrigel invasion of tumor cells from human osteosarcoma Saos-2 (A), chondrosarcoma Sarc (B), melanoma A375 (C), metastatic melanoma A375M6 (D), ovarian carcinoma SKOV-3 cells (E), or primary ovarian cancer cells derived from a tumor excision (OV-53) (F), as monitored in real-time for 20 hr as changes in cell index by the xCELLigence RTCA system (Example 8).
(§2) To investigate the ability of RI-3 to prevents matrigel invasion of tumor cells form different tissue origins, human osteosarcoma Saos-2 (A), chondrosarcoma Sarc (B) melanoma A375 (C), metastatic melanoma A375M6 (D), ovarian carcinoma SKOV-3 cells (E) or primary ovarian cancer cells derived from a tumor excision (OV-53) (F) were seeded on polymerized matrigel and allowed to invade matrigel in the absence (None) or in the presence of 10 nM RI-3. Cell invasion was monitored in real-time for 20 hrs as changes in cell index by the xCELLigence RTCA system. Data represent mean±SD from quadruplicate experiments. All cell lines were able to cross matrigel, although to a different extent. In all case RI-3 reduced matrigel invasion by about 30%, 31%, 64%, 57%, 53% and 68%, of Saos-2, Sarc, A375, A375M6, SKOV-3 and OV-53 cells, respectively.

[1] = tested on: human osteosarcoma Saos-2; assay: Matrigel invasion (xCELLigence RTCA), Saos-2; type: cell-based; conditions: 10 nM, 20 hrs
Description: as §1, §2

HUVECs = assay: Endothelial tube formation on matrigel; type: cell-based, human; conditions: 10 nM
Description: FIG. 10 At the concentration of 10 nM the retro-inverso peptide RI-3 inhibits both FBS (61%) and VEGF-triggered (75%) endothelial tube formation. (A) representative pictures taken with an inverted microscope at 100× magnifications. (B) quantitative analysis (Example 10).
Endothelial cells undergo morphological differentiation into an extensive network of capillary-like structures consisting of highly organized three-dimensional cords when seeded on matrigel in the presence of a pro-angiogenic stimuli. HUVECs were suspended in medium (CTRL) or medium with 10% FBS or 40 ng/ml VEGF165, without (None) or with 10 nM RI-3 and seeded on matrigel-coated plates for 6 hrs at 37° C., 5% CO2. Representative pictures were taken with an inverted microscope at 100× magnifications. Scale bar: 10 μm (A). Quantitative analysis of tube formation was calculated as a percentage of tubes formed by cord-like structures counted in the absence of any angiogenic stimulus and considered as 100% (CTRL). Data represent means±SD of two independent experiments performed in duplicate. Statistical significance was calculated against none with *p<0.05, **p<0.001 (B). Both FBS and VEGF promoted endothelial tube formation, reaching 352% and 620%, respectively, above basal. The retro-inverso peptide RI-3 reduced FBS- and VEGF-dependent tube formation by 61% and 75%, respectively.

ovarian carcinoma SKOV-3 = assay: Trans-endothelial migration through HUVEC monolayer (xCELLigence RTCA), SKOV-3; type: cell-based, human; conditions: 10 nM, 5 hrs
Description: FIG. 9 At the concentration of 10 nM the retro-inverso peptide RI-3 affects trans-endothelial migration of human chondrosarcoma Sarc (A), melanoma A375 (B), ovarian carcinoma SKOV-3 (C) cells, or THP1 monocytes (D), as monitored by the xCELLigence RTCA system (Example 9).
The entry of tumor cells into bloodstream is one of the earliest events of the metastatic process. The ability of RI-3 to affect trans-endothelial migration of human chondrosarcoma Sarc (A) melanoma A375 (B), ovarian carcinoma SKOV-3 (C) cells, or THP1 monocytes (D) was monitored by the xCELLigence RTCA system. Human Umbilical Vein Endothelial Cells (HUVEC) (1×10^4 cells/well) suspended in growth medium, were allowed to grow for 20-25 hrs until they form a confluent monolayer, prior to seeding Sarc, A375, SKOV-3, or THP-1 cells (1×10^4 cells/well) in growth medium in the absence (None) or in the presence of 10 nM RI-3. The experiments were performed twice in quadruplicate. When cells cross the endothelial monolayer, there is a drop in electrical resistance which is monitored in real-time for 5 hrs as the cell index changes due to the rupture of endothelial monolayer. All cell lines were able to reduce endothelial monolayer integrity. The addition of 10 nM RI-3 inhibited the capability of Sarc, A375, SKOV-3, and THP-1 cells to disrupt endothelial monolayers by 17%, 22%, 58%, and 36% respectively.

FPR1 = target: T1, FPR1 (Homo sapiens, UniProt P21462); assay: Agonist-dependent FPR1 internalization in RBL-2H3/ETFR cells (microscopy); type: cell-based; conditions: binding experiments at 37° C., FITC-fMLF
T1 construct: expressed in transfected cells; host or cells: rat basophilic leukaemia RBL-2H3/ETFR cells
T1 sequence (P21462 1-350): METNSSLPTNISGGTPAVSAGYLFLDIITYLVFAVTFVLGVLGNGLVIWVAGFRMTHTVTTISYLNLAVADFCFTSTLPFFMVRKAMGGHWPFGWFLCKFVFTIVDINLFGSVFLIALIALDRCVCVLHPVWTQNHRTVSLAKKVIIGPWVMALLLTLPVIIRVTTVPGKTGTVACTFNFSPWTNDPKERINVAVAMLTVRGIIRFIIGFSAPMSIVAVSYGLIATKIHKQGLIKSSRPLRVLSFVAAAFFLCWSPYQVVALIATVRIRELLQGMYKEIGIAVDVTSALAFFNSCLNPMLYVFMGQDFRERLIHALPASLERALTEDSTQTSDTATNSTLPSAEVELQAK
Description: Cell-associated fluorescence was measured using a fluorescence plate reader. The results are depicted in FIG. 3. […] To evaluate the effect of RI-3 on agonist-dependent FPR1 internalization, binding experiments were performed at 37° C. and cells were visualized using a Zeiss 510 Meta LSM microscope. Original magnifications: 630×. Scale bar: 10 μm.

HT1080 cells = assay: Proliferation of HT1080 cells (xCELLigence); type: cell-based, human; conditions: 10 μM, 2-26 time range
Description: Cell proliferation of HT1080 cells was monitored for 75 hrs using the xCELLigence technology. Cells (1×10^3 cells/well) were seeded on E-plates in growth medium (None) or growth medium plus 10 μM RI-3 and allowed to proliferate at 37° C., 5% CO2. Medium was replaced every 24 hrs (arrows). Impedance value of each well was automatically monitored and expressed as cell index. Data represent mean±SD from a quadruplicate experiment representative of 2 replicates (A). […] In the 2-26 time range the doubling times of cells exposed to diluents or to RI-3 were 16.3828+/−0.22 hrs and 17.7648+/−0.27 hrs, respectively (B).

chondrosarcoma Sarc = assay: Matrigel invasion (xCELLigence RTCA), Sarc; type: cell-based, human; conditions: 10 nM, 20 hrs
Description: as §1, §2

Structure (SMILES): CC(=O)N[C@H](Cc1ccc(O)cc1)C(=O)N[C@H](CCCNC(=N)N)C(=O)NC(C)(C)C(=O)N[C@H](CCCNC(=N)N)C(N)=O [RI-3, Ac-(D)-Tyr-(D)-Arg-Aib-(D)-Arg-NH2] (Ac-[dY][dR][Aib][dR]-NH2)
- reduction of matrigel invasion (melanoma A375): ~64%
- reduction of matrigel invasion [1]: about 30%
- reduction of VEGF-dependent tube formation (HUVECs; 40 ng/ml VEGF165, 6 hrs): 75%
- reduction of FBS-dependent tube formation (HUVECs; 10% FBS, 6 hrs): 61%
- inhibition of the capability to disrupt endothelial monolayers (ovarian carcinoma SKOV-3): 58%
- agonist-dependent FPR1 internalization (FPR1): prevented agonist-dependent FPR1 internalization
- doubling time during exponential growth (HT1080 cells): 17.7648 ± 0.27 h
- reduction of matrigel invasion (chondrosarcoma Sarc): ~31%
